This is an account of results in ChEMBL document CHEMBL1201862, “PubChem BioAssay data set” (2004).

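Compound exposure: 48 hours, 5 concentrations, 96-well plates. At the GI50, growth is halved.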 Activity calls are given as the source filed them. Cut-off read from the data, not from the text of the source: active = GI50 up to about 1.1 µM and inactive = higher.

What is called GI50 is the concentration at which growth is held to half of that of the control.

Test systems include CAKI-1; HCT-116; OVCAR-3; 786-0; IGROV-1; OVCAR-8; Hs-578T; UACC-62; CCRF-CEM; NCI-H460; COLO 205; SNB-19; BT-549; HT-29; SF-539; MOLT-4; HCT-15; RPMI-8226; NCI-H522.
What all share (assay): DTP human tumour cell line panel, 48 h

For `CC1C2(C)OC(=N)C(C#N)(C(c3cccc([N+](=O)[O-])c3)O2)C1(C#N)C#N` (configuration not stated), the GI50 is 12.1 µM (inactive) in the assay on CAKI-1; 18.5 µM (inactive) in the assay on HCT-116; > 10 µM (inactive) in the assay on OVCAR-3; 17.4 µM (inactive) with 786-0; 42.6 µM (inactive) in the assay with IGROV-1; 29.6 µM (inactive) with OVCAR-8. The GI50 with Hs-578T was 27.1 µM (inactive); with UACC-62 it was 17.9 µM (inactive); in the assay on CCRF-CEM, 15.6 µM (inactive); in the assay on NCI-H460 it was 13.5 µM (inactive); with COLO 205 it was 13.8 µM (inactive); in the assay on SNB-19 it was 37.1 µM (inactive). Further, the GI50 was 31 µM (inactive) in the assay with BT-549, 26.4 µM (inactive) with HT-29, 18.9 µM (inactive) in the assay with SF-539 and 36.3 µM (inactive) in the assay on MOLT-4.

Regarding `COc1ccc(C2SCC(=O)N2c2ccc(-c3ccc(-n4c(-c5ccccc5)nc5ccccc5c4=O)cc3)cc2)cc1OC` (configuration not stated), the GI50 in the assay on CAKI-1 is 88.5 µM (inactive); in the assay with HCT-116, 67.8 µM (inactive); in the assay with OVCAR-3, 26.5 µM (inactive); with HCT-15 it was above 100 µM; with 786-0 it was 44.4 µM (inactive); in the assay with IGROV-1 it was 37.7 µM (inactive). The GI50 in the assay with OVCAR-8 is 27.5 µM (inactive); with Hs-578T, 69.5 µM (inactive); with UACC-62, 29.2 µM (inactive); in the assay on CCRF-CEM it was 20 µM (inactive); in the assay with NCI-H460, 32.8 µM (inactive); in the assay on COLO 205, 18.4 µM (inactive). The GI50 with SNB-19 is 84.5 µM (inactive); in the assay with BT-549, 18.5 µM (inactive); in the assay on HT-29, 45.2 µM (inactive); with RPMI-8226 it was 31.7 µM (inactive); with SF-539 it was 30.5 µM (inactive); in the assay with MOLT-4, 22.4 µM (inactive).

`O=C1CC(c2ccccc2)n2c(nc3ccccc32)N1` (configuration not stated): the GI50 is 35.3 µM (inactive) in the assay on CAKI-1; > 100 µM (inactive) with HCT-116; 54.2 µM (inactive) with OVCAR-3; 46.8 µM with HCT-15; 74.8 µM (inactive) with 786-0; 47.4 µM (inactive) with IGROV-1. In addition, the GI50 is 29.9 µM (inactive) in the assay with NCI-H522; > 100 µM (inactive) in the assay with OVCAR-8; 76.9 µM (inactive) in the assay with Hs-578T; 72.9 µM (inactive) with UACC-62; > 10 µM (inactive) in the assay with CCRF-CEM; > 100 µM (inactive) with NCI-H460. The GI50 in the assay with COLO 205 is > 100 µM (inactive); with SNB-19 it was > 100 µM (inactive); in the assay with BT-549, 29.2 µM (inactive); in the assay with HT-29, > 100 µM (inactive); in the assay with RPMI-8226 it was 27 µM (inactive); in the assay on SF-539, > 100 µM (inactive). In the assay with MOLT-4, the GI50 was 65.8 µM (inactive).

In the case of `COc1cc(S(=O)(=O)Nc2ccc(-c3csc(N4C(=O)CSC4c4cccc(Oc5ccccc5)c4)n3)cc2)ccc1Cl` (configuration not stated), the GI50 in the assay on CAKI-1 is > 100 µM (inactive); with HCT-116 it was 29.9 µM (inactive); with OVCAR-3, 64.3 µM (inactive); with HCT-15, 61.7 µM; in the assay on 786-0, 46.9 µM (inactive); with IGROV-1 it was 50.7 µM (inactive). For the same molecule, the GI50 in the assay on NCI-H522 was 24.2 µM (inactive); in the assay with OVCAR-8 it was 47 µM (inactive); in the assay on Hs-578T, 27.4 µM (inactive); with UACC-62 it was 36.9 µM (inactive); in the assay with CCRF-CEM it was 23.8 µM (inactive); with COLO 205, 29.4 µM (inactive). Also, the GI50 with SNB-19 is 77.8 µM (inactive); in the assay on BT-549 it was 23.7 µM (inactive); in the assay on HT-29 it was 47 µM (inactive); in the assay with RPMI-8226, 39.2 µM (inactive); with SF-539, 31.9 µM (inactive); in the assay with MOLT-4 it was 52 µM (inactive).

Regarding `O=C(CSCC(=O)N/N=C\c1ccc(-c2ccccc2)cc1)N/N=C\c1ccc(-c2ccccc2)cc1`, the GI50 with CAKI-1 was 40.5 µM (inactive); in the assay with HCT-116, 9.27 µM (inactive); in the assay on OVCAR-3 it was 16.1 µM (inactive); with HCT-15, 26.1 µM; in the assay with 786-0 it was 33.2 µM (inactive); with IGROV-1, 11.8 µM (inactive). For the same molecule, the GI50 was 13.5 µM (inactive) in the assay on NCI-H522; 24.6 µM (inactive) with OVCAR-8; 18.3 µM (inactive) with Hs-578T; 22.9 µM (inactive) in the assay with UACC-62; 30.9 µM (inactive) in the assay on NCI-H460; 13.6 µM (inactive) in the assay with COLO 205. In addition, the GI50 in the assay with SNB-19 was 26.2 µM (inactive); with BT-549 it was 20.8 µM (inactive); with HT-29, 23 µM (inactive); in the assay on SF-539 it was 19.4 µM (inactive); in the assay with MOLT-4, 25.3 µM (inactive).

Regarding `O=c1[nH]c(N/N=C\C(=N/Nc2nc3ccccc3c(=O)[nH]2)C(O)C(O)C(O)CO)nc2ccccc12` (configuration not stated), the GI50 in the assay with CAKI-1 was > 100 µM (inactive); in the assay on HCT-116 it was > 100 µM (inactive); in the assay on OVCAR-3 it was > 100 µM (inactive); in the assay on HCT-15, above 100 µM; with 786-0 it was > 100 µM (inactive); in the assay on IGROV-1, > 100 µM (inactive). In addition, the GI50 with OVCAR-8, with Hs-578T, in the assay with UACC-62, in the assay on CCRF-CEM, in the assay with NCI-H460 and in the assay with COLO 205 was > 100 µM (inactive) each time. The GI50 with SNB-19, with BT-549, in the assay on HT-29, with RPMI-8226, with SF-539 and in the assay with MOLT-4 was > 100 µM (inactive) throughout.

On to `O=C1N/N=C\c2ccc(cc2)OCc2cccc(n2)COc2ccc(cc2)/C=N\NC1=O`, for which the GI50 with HCT-116 was > 25 µM (inactive); in the assay on OVCAR-3 it was > 25 µM (inactive); in the assay with HCT-15 it was above 25 µM; in the assay with 786-0 it was > 25 µM (inactive); in the assay on IGROV-1 it was > 25 µM (inactive); with NCI-H522, > 25 µM (inactive). Further, the GI50 in the assay on OVCAR-8 was > 25 µM (inactive); in the assay on Hs-578T, 13.6 µM (inactive); in the assay with UACC-62, > 25 µM (inactive); with CCRF-CEM, > 25 µM (inactive); in the assay with NCI-H460 it was > 25 µM (inactive); in the assay with COLO 205 it was > 25 µM (inactive). For the same molecule, the GI50 in the assay on SNB-19, in the assay on BT-549, in the assay on HT-29, in the assay on RPMI-8226, with SF-539 and in the assay with MOLT-4 was > 25 µM (inactive) each time.

Turning to `Oc1ccc2c(c1)-c1c(c3ccccc3n1CCN1CCOCC1)CC2`, the GI50 is 32.6 µM (inactive) in the assay on CAKI-1; 31.4 µM (inactive) in the assay with HCT-116; 33.5 µM (inactive) with OVCAR-3; 39.7 µM in the assay with HCT-15; 33.7 µM (inactive) in the assay with 786-0; 15.3 µM (inactive) in the assay with IGROV-1. In addition, the GI50 in the assay with OVCAR-8 was 33.2 µM (inactive); in the assay on Hs-578T, 63.4 µM (inactive); in the assay on UACC-62 it was 27.5 µM (inactive); with CCRF-CEM it was > 100 µM (inactive); with NCI-H460 it was > 100 µM (inactive); in the assay with COLO 205, 41.7 µM (inactive). The GI50 with SNB-19 is 38.6 µM (inactive); in the assay with BT-549, 43.7 µM (inactive); in the assay with HT-29, 39.6 µM (inactive); in the assay on RPMI-8226, > 100 µM (inactive); in the assay on SF-539, 46 µM (inactive); with MOLT-4, > 100 µM (inactive).
